Substitutions are numbered along the chain they refer to.
How the values were obtained:
[1] = target: T1, METTL21D in p97-ND1:ASPL-CΔ:METTL21D (Homo sapiens, UniProt Q9H867); test: X-ray crystal structure, […] Å; assay type: binding; conditions: METTL21D active site; crystallized with SAM, product of p97 Lys315 trimethylation; contacts Asp96, Trp126
T1 construct: gene VCPKMT; 1:1:1 heterotrimer ~110 kDa; METTL21D His tag cleaved by TEV; p97-ND1 fragment lacking D2 domain, Lys315 trimethylated; ASPL-CΔ residues 313-500; E. coli; with Transitional endoplasmic reticulum ATPase; Tether containing UBX domain for GLUT4
T1 sequence (Q9H867 2-229 limits assumed, stated change not applied): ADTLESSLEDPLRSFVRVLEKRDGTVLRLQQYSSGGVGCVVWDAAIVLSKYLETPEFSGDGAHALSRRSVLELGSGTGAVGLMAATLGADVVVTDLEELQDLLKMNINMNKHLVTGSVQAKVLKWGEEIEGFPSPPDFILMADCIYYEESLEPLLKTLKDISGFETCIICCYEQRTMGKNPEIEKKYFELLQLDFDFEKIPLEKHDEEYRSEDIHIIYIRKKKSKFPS
T1 sequence (P55072 2-480 partner limits assumed): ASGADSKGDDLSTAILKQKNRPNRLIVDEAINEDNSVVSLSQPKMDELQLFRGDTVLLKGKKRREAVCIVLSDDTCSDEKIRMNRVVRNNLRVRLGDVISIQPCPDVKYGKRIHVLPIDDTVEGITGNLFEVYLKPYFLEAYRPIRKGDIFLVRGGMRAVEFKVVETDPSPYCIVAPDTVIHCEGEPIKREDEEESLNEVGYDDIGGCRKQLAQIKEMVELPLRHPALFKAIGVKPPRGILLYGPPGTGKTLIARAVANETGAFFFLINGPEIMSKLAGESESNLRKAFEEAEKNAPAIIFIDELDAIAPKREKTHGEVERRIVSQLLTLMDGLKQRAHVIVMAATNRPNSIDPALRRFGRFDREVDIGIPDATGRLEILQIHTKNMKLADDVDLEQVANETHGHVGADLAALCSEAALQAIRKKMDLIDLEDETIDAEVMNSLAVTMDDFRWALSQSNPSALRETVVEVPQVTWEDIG
T1 sequence (Q9BZE9 313-500 partner): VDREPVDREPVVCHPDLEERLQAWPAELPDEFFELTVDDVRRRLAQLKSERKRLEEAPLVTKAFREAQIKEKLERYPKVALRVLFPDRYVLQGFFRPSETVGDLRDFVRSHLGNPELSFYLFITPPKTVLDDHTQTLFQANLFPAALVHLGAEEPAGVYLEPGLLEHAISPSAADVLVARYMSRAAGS

AtMETTL21D [2] = target: T2, AtMETTL21D (Arabidopsis thaliana, UniProt F4HUD6, C19S/L26V, form not given); test: methylation assay, anti-Kme3 western blot; assay type: biochemical; conditions: co-substrate AtCDC48; weak gain of trimethylation; 20 mM HEPES pH 8.0, 200 mM NaCl, RT
T2 construct: gene At1g08125; E. coli; His tag cleaved by TEV
T2 sequence (F4HUD6 15-239 C19S/L26V): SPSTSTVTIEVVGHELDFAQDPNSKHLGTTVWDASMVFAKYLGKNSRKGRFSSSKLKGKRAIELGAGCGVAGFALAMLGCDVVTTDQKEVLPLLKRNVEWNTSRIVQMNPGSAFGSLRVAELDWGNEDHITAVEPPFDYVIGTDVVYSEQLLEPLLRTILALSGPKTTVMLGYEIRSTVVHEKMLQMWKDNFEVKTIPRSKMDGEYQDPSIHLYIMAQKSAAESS

AtMETTL21D [3] = target: T3, AtMETTL21D (Arabidopsis thaliana, UniProt F4HUD6); test: methylation assay, anti-monomethyl-lysine western blot; assay type: biochemical; conditions: automethylation and monomethylation of AtCDC48 in the presence of PUX1; pH 8.0, RT
T3 construct: gene At1g08125; E. coli; His tag cleaved by TEV
T3 sequence (F4HUD6 15-239): T2 sequence (F4HUD6 15-239 C19S/L26V) with S5C, V12L

Nc1ncnc2c1ncn2[C@@H]1O[C@H](CSCC[C@H](N)C(=O)O)[C@@H](O)[C@H]1O [S-adenosyl-L-homocysteine]
X-ray crystal structure, 3.0 Å [1]: the active site of METTL21D contains a S-adenosyl-L-homocysteine (SAH) molecule

C[S+](CC[C@H](N)C(=O)O)C[C@H]1O[C@@H](n2cnc3c(N)ncnc32)[C@H](O)[C@@H]1O (stereo partly drawn) [S-adenosyl-methionine]
methylation assay, anti-Kme3 western blot (AtMETTL21D [2]): substitution of leucine with valine in plant AtMETTL21D resulted in gain of trimethylation activity | methylation assay, anti-monomethyl-lysine western blot (AtMETTL21D [3]): AtMETTL21D monomethylated itself, as well as AtCDC48 in the presence of PUX1

— paper PMC9942839, “Structural remodeling of AAA+ ATPase p97 by adaptor protein ASPL facilitates posttranslational methylation by METTL21D” (Proceedings of the National Academy of Sciences of the …, 2023)
